Like-named read-outs stand apart in the source and are kept apart here. Where only a bound is given, the exact number is not on record here.

Series [1] in a line: Solubility (Löslichkeit, g/l). In kind it is physicochemical. Conditions: for Löslichkeit: comparison with known compounds.
The next series concerns MCF-7 cells. The experiment in a line: Proliferation assay, crystal violet staining (cell test), MCF-7. Type of series: cell-based. The conditions noted are these: Homo sapiens. As for the experimental part:
(§1) Cultivated human tumor cells (as indicated) are flattened out at a density of 5000 cells/measuring point in a 96-hole multititer plate in 200 μl of the corresponding growth medium. After 24 hours, the cells of one plate (zero-point plate) are colored with crystal violet (see below), while the medium of the other plates is replaced by fresh culture medium (200 μl), to which the test substances are added at various concentrations (0 μm, as well as in the range of 0.01-30 μm; the final concentration of the solvent dimethyl sulfoxide is 0.5%). The cells are incubated for 4 days in the presence of test substances. The cell proliferation is determined by coloring the cells with crystal violet: the cells are fixed by adding 20 μl/measuring point of a 11% glutaric aldehyde solution for 15 minutes at room temperature. After three washing cycles of the fixed cells with water, the plates are dried at room temperature. The cells are colored by adding 100 μl/measuring point of a 0.1% crystal violet solution (pH is set at 3 by adding acetic acid). After three washing cycles of the colored cells with water, the plates are dried at room temperature. The dye is dissolved by adding 100 μl/measuring point of a 10% acetic acid solution. The extinction is determined by photometry at a wavelength of 595 nm. The change of cell growth, in percent, is calculated by standardization of the measured values to the extinction values of the zero-point plate (=0%) and the extinction of the untreated (0 μm) cells (=100%).

A further series has as its target T1, CDK2/CycE (Homo sapiens, UniProt P24941).
T1 construct: GST; purchased Dr. Dieter Marmé, Klinik für Tumorbiologie, Freiburg; host or cells: baculovirus-infected Sf9 insect cells
Nature of the series: CDK2/CycE kinase assay (enzyme test). In kind it is biochemical. The conditions noted are these: read-out: Inhibition IC50 [nM] CDK2/CycE. As for the experimental part:
Recombinant CDK2- and CycE-GST-fusion proteins, purified from baculovirus-infected insect cells (Sf9), are obtained by Dr. Dieter Marmé, Klinik für Tumorbiologie [Clinic for Tumor Biology], Freiburg. Histone IIIS, which is used as a kinase substrate, is purchased by the Sigma Company.
The reaction was is stopped by adding EDTA solution (250 mmol, pH 8.0, 14 μl/measuring point).
From each reaction batch, 10 μl applied to P30 filter strips (Wallac Company), and non-incorporated ^33P-ATP is removed by subjecting the filter strips to three washing cycles for 10 minutes each in 0.5% phosphoric acid. After the filter strips are dried for one hour at 70° C., the filter were are covered with scintillator strips (MeltiLex™ A, Wallac Company) and baked for one hour at 90° C. The amount of incorporated ^33P (substrate phosphorylation) is determined by scintillation measurement in a gamma-radiation measuring device (Wallac).

The test system of series [2] is human tumor cells (as indicated). Nature of the series: Proliferation assay, crystal violet staining, other human tumor cells as indicated in the tables. The conditions noted are these: 4 days incubation. Type of series: cell-based. The protocol:
as §1

[3] abbreviates: 96 h, MCF7 cells, 4 days incubation, read-out: Proliferation IC50 [μM] MCF7.
Setting [4] is: DU-145, 96 h, DU145 cells, read-out: Proliferation IC50 [μM] DU145.
Setting [5] is: HCT-116, 96 h, HCT116 cells, read-out: Proliferation IC50 [μM] HCT116.
The mark [6] stands for this setting: NCI-H460, 96 h, H460 cells, read-out: Proliferation IC50 [μM] H460.
Where [7] appears, read: MCF7, MCF-7 cells, comparison with known compounds, read-out: MCF-7 IC50.

Consider `COC[C@H](C)Nc1nc(Nc2ccc(S(N)(=O)=O)cc2)ncc1Br` [Example 7], for which the “Sw” value in series [1] was 0.028 g/L. In addition, the IC50 came to 0.7 µM with MCF-7 cells (setting [3]); 6 nM on CDK2/CycE; 0.5 µM in series [2] (setting [4]); 1.2 µM in series [2] (setting [5]); 1.5 µM in series [2] (setting [6]).

As to `C#CCOc1nc(Nc2ccc(OCC3CO3)cc2)ncc1Br` (stereo not drawn) [Example 40], the “Sw” value in series [1] was found to be 0.002 g/L. For the same compound, the IC50 was 1 µM in the series with MCF-7 cells (setting [3]); 20 nM on CDK2/CycE; 9 µM in series [2] (setting [4]); 3 µM in series [2] (setting [5]); 3 µM in series [2] (setting [6]).

Consider `C#CCOc1nc(Nc2ccc(O)cc2)ncc1Br` [Example 6, 4-[[5-Bromo-4-(2-propynyloxy)-2-pyrimidinyl]amino]-phenol], for which the “Sw” value in series [1] was found to be 0.008 g/L. Further, the IC50 with MCF-7 cells (setting [3]) was 4 µM; on CDK2/CycE, 70 nM; in series [2] (setting [6]) it was 6 µM.

In the case of `CC(C)[C@H](CO)Nc1nc(Nc2ccc(S(=O)(=O)NCCO)cc2)ncc1Br` [Example 48], in series [1], the “Sw” value came out at 0.042 g/L. Also, in series [1], the “Löslichkeit” value turned out to be 0.042 g/L. The IC50 with MCF-7 cells (setting [3]) worked out at 0.2 µM; in the series with MCF-7 cells (setting [7]), 0.2 µM; on CDK2/CycE, 4 nM; in series [2] (setting [4]), 0.3 µM; in series [2] (setting [5]), 0.4 µM; in series [2] (setting [6]), 1 µM.

In the case of `C#CCNc1nc(Nc2cccc(S(N)(=O)=O)c2)ncc1Br` [Example 36], in series [1], the “Sw” value is 0.018 g/L. Moreover, the IC50 in the series on MCF-7 cells (setting [3]) stood at 0.4 µM; at CDK2/CycE it was 30 nM; in series [2] (setting [4]), 0.6 µM; in series [2] (setting [5]), 0.5 µM; in series [2] (setting [6]) it was 0.6 µM.

Take `CCC(Nc1nc(Nc2ccc(S(N)(=O)=O)cc2)ncc1Br)C(=O)OC` (stereo not drawn) [Example 45]: in series [1], the “Sw” value was 0.0094 g/L. Also, the IC50 amounted to 2 µM with MCF-7 cells (setting [3]); 10 nM on CDK2/CycE; 0.5 µM in series [2] (setting [4]); 1.2 µM in series [2] (setting [5]); 1.7 µM in series [2] (setting [6]).

On to `C#CCNc1nc(Nc2ccc([S+](C)[O-])cc2)ncc1Br` (stereo not drawn) [Example 25], for which the “Sw” value in series [1] worked out at 0.017 g/L. For the same compound, the IC50 with MCF-7 cells (setting [3]) was determined as 1.2 µM; on CDK2/CycE, 70 nM; in series [2] (setting [4]), 1.2 µM; in series [2] (setting [5]), 1.1 µM; in series [2] (setting [6]), 1.5 µM.

Take `C#CCOc1nc(Nc2ccc(C(C)=O)cc2)ncc1Br` [Example 22, 1-[4-[(5-Bromo-4-(2-propynyloxy)-2-pyrimidinyl)amino]phenyl]-ethanone]: the “Sw” value in series [1] was 0.003 g/L. Moreover, the IC50 in the series on MCF-7 cells (setting [3]) came to 1.2 µM; on CDK2/CycE, 40 nM; in series [2] (setting [4]) it was 1.5 µM; in series [2] (setting [5]) it was 1.5 µM; in series [2] (setting [6]) it was 1.5 µM.

Take `CC(=O)c1ccc(Nc2ncc(Br)c(NCC3CC3)n2)cc1` [Example 52]: the “Sw” value in series [1] came to 0.0005 g/L. Also, the IC50 came to 0.2 µM in the series with MCF-7 cells (setting [3]); 200 nM on CDK2/CycE; 2 µM in series [2] (setting [4]); 1.2 µM in series [2] (setting [5]); 1.6 µM in series [2] (setting [6]).

Turning to `OCC(CO)Nc1nc(Nc2ccc(O)cc2)ncc1Br` [Example 3], in series [1], the “Sw” value was 0.039 g/L. Further, the IC50 worked out at 8 µM with MCF-7 cells (setting [3]) and 200 nM at CDK2/CycE.

On to `O=S(=O)(CCO)c1cccc(Nc2ncc(Br)c(NC(CO)CO)n2)c1` [Example 19], for which the “Sw” value in series [1] was determined as 0.041 g/L. For the same compound, the IC50 in the series on MCF-7 cells (setting [3]) is greater than 10 µM; at CDK2/CycE, 800 nM.

`C#CCNc1nc(Nc2ccc(S(N)(=O)=O)cc2)ncc1Cl` [Example 44]: the “Sw” value in series [1] came to 0.005 g/L. Moreover, the IC50 came to 1.2 µM with MCF-7 cells (setting [3]); 8 nM on CDK2/CycE; 0.3 µM in series [2] (setting [4]); 0.4 µM in series [2] (setting [5]); 0.4 µM in series [2] (setting [6]).

Take `NS(=O)(=O)c1ccc(Nc2ncc(Br)c(NCCCC(=O)O)n2)cc1` [Example 49]: the “Sw” value in series [1] came out at 0.044 g/L. The IC50 is greater than 10 µM in the series with MCF-7 cells (setting [3]) and 50 nM at CDK2/CycE.

As to `NS(=O)(=O)c1ccc(Nc2ncc(Br)c(NC(CO)CO)n2)cc1` [Example 9], the “Löslichkeit” value in series [1] was 0.009 g/L. For the same compound, the IC50 in the series on MCF-7 cells (setting [3]) came out at 0.9 µM; in the series with MCF-7 cells (setting [7]), 0.9 µM; at CDK2/CycE, 7 nM; in series [2] (setting [4]) it was 3 µM; in series [2] (setting [5]), 3 µM.

(Values after patent US7598260B2, “CDK-inhibitory pyrimidines, their production and use as pharmaceutical agents” (Bayer Schering Pharma Aktiengesellschaft, priority 2001, dated 2009).)
